Efficacy data for three molecules are collected here from ChEMBL document CHEMBL3714739, “Compounds for the treatment of pain and screening methods therefor” (2008).

Assay [1] deals with Mas-related G-protein coupled receptor member X1 (Homo sapiens) (UniProt Q96LB2). The assay is described as follows: Activation of human MrgX1 receptor expressed in NIH/3T3 cells incubated for 5 days by beta-galactosidase reporter gene assay relative to Bam22. It is filed as cell-based. To be noted: NIH3T3.
The target in assay [2] is T1, Mas-related G-protein coupled receptor member X2 (Homo sapiens) (UniProt Q96LB1).
T1 sequence (whole entry): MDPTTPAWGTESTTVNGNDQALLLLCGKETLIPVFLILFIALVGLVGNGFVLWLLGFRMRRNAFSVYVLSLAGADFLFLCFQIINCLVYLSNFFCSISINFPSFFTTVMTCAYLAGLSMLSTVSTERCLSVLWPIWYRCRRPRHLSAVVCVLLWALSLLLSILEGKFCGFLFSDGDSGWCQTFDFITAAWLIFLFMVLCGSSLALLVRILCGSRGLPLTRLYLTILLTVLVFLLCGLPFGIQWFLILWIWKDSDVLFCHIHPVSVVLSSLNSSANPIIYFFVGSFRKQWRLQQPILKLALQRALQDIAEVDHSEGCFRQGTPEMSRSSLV
The assay is described as follows: Activation of human MrgX2 receptor expressed in NIH/3T3 cells incubated for 5 days by beta-galactosidase reporter gene assay relative to STIA. The class given is cell-based. To be noted: NIH3T3.

Sequence of Mas-related G-protein coupled receptor member X1 (Homo sapiens) (Q96LB2 whole entry): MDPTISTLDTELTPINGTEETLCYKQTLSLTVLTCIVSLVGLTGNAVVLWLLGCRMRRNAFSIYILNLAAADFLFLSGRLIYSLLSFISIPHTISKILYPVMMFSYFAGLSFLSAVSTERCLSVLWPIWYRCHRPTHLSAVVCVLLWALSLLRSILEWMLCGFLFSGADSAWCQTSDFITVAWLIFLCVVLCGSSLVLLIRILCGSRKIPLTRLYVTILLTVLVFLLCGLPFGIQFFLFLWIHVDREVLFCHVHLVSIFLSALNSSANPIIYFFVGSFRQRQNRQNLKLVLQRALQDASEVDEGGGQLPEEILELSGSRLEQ

In the case of `N=C(N)NCCC[C@H](C(N)=O)n1c(-c2cccc(Oc3ccccc3)c2)nc2cc(C(=O)Nc3ccc4cn[nH]c4c3)ccc21`, the Efficacy in assay [1] was determined as 221%; in assay [2] it was 2%.
As for `N=C(N)NCCC[C@@H](C(N)=O)n1c(-c2cccc(Oc3ccccc3)c2)nc2cc(C(=O)NCc3cccc(C(F)(F)F)c3)ccc21`, the Efficacy in assay [1] was 95%; in assay [2], 21%.
Turning to `N=C(N)NCCC[C@H](C(N)=O)n1c(-c2cccc(Oc3ccccc3)c2)nc2cc(C(=O)N3CCOCC3)ccc21`, the Efficacy in assay [1] turned out to be 203%; in assay [2], 6%.
